Measured values taken from US6998394B2, “Process for isolating physalins from plants and pharmaceutical compositions containing physalins” (Fundacao Oswaldo Cruz - FIOCRUZ, priority 1999, dated 2006).
Values after ≈ are worked out from the molar mass of the structure shown.

What was measured:
[1] = system: trypomastigotes of Trypanosoma cruzi (Y strain); assay: In vitro antitrypanosomial activity against T. cruzi trypomastigotes (count of viable parasites); assay type: cell-based
Description: In vitro studies using pure physalins are carried out with trypomastigotes of Trypanosoma cruzi.
T. cruzi Y strain is maintained in MK2 strain cell culture in a RPMI medium+10% bovine fetal serum, at 37° C., under 5% CO2. This material is centrifuged during 15 minutes at 1500 rpm. Afterwards, the material is maintained in rest at 37° C. for 2 hours. The supernatant is centrifuged again during 30 minutes at 3000 rpm. The trypomastigotes (5×10^5/well) in RPMI medium with 10% bovine fetal serum and antibiotic are incubated in wells with different concentrations of physalin B or physalin D. After 24–48 hours, the viable parasites maintained at a temperature of 4° C. are counted. Each experiment was carried out in triplicate.

[2] = system: promastigotes of Leishmania amazonensis; assay: In vitro antileishmanicidal activity on promastigotes (MTT viability); assay type: cell-based; settings: 20 μg/ml
Description: Stationary phase promastigotes of Leishmania amazonensis were obtained from parasite cultures in LIT medium with 10% bovine fetal serum. The assays were standardized in plates with 96 wells. Promastigotes were plaque harbored, in triplicate, in 100 μl of LIT medium. 10 μl of physalin B solution and 10 μl of a positive control (Amphotericin B) are added to the wells. Several dilutions were used. Parasite viability was determined after incubation with MTT by reading the absorbance at 570 nm in ELISA Microplate.

[3] = system: Leishmania amazonensis in peritoneal macrophages; assay: In vitro infection assay using peritoneal macrophages infected with Leishmania amazonensis; assay type: cell-based; settings: 10 μg/ml
Description: Peritoneal macrophages were incubated during 2 hours at 37° C. in 24 wells plates with laminas. After washing to remove non-bound cells, the wells were incubated with stationary phase promastigotes of Leishmania amazonensis (parasites/macrophages in a ratio of 10:1). After 18 hours, the cultures were washed to remove the free parasites. After 24 hours, physalin B solution is added to the wells. The laminas are collected, fixed with methanol and dyed with Giemsa. The infection level was determined by counting parasite quantity and the infected macrophages percentage.

[4] = system: TNFα production by macrophages; assay: TNFα production by LPS-stimulated peritoneal macrophages (ELISA); assay type: cell-based; settings: LPS 500 ng/ml, various concentrations, supernatants 4 hours after stimulation, FIG. 3A
Description: (§1) In a first test, thyoglycollate-elicited peritoneal macrophages were stimulated with LPS (500 ng/ml) in the presence of various concentrations of physalin B. Cell-free supernatants were collected 4 hours after stimulation and tested for TNα and IL-6 production by ELISA.

[5] = system: IL-6 production by macrophages; assay: IL-6 production by LPS-stimulated peritoneal macrophages (ELISA); assay type: cell-based; settings: LPS 500 ng/ml, various concentrations, supernatants 4 hours after stimulation, FIG. 3B
Description: as §1

[6] = system: nitric oxide production by macrophages; assay: Nitric oxide (nitrite) production by stimulated peritoneal macrophages (Griess assay); assay type: cell-based; settings: 24 hours
Description: as §1, with “second” for “first”, “ng/ml), IFNγ (5 ng/ml), or IFNγ +LPS” for “ng/ml)”, “24” for “4”, “nitrite” for “TNα and IL-6”, “Griess assay.” for “ELISA.”
In a third test, thyoglycollate-elicited peritoneal macrophages were stimulated with LPS (500 ng/ml)+IFNγ (5 ng/ml). Physalin B (2 μg/ml) was added 0, 2, 4 and 6 hours after IFNγ+LPS stimulation. Cell-free supernatants were collected 24 hours after stimulation and tested for nitrite production by Griess assay. IFNγ+LPS was used as control.
In a fourth test, thyoglycollate-elicited peritoneal macrophages were stimulated with LPS (500 ng/ml)+IFNγ (5 ng/ml) in the presence of physalin B (2 μg/ml) or indomethacyn (1 μg/ml). Cell-free supernatants were collected 24 hours after stimulation and tested for nitrite production by Griess assay.

[7] = system: ConA stimulated splenocytes; assay: Proliferation of ConA-stimulated splenocytes (3H thymidine uptake); assay type: cell-based, BALB/c; settings: ConA 1 μg/ml, several concentrations, FIG. 7
Description: In a fifth test, BALB/c spleen cells were stimulated with ConA (1 μg/ml) in the presence of several concentrations of physalin B. After 24 hours, cultures were pulsed with ^3H thymidine. Proliferation was assessed by measurement of thymidine uptake.

[8] = system: IL-2 production by ConA stimulated splenocytes; assay: IL-2 production by ConA-stimulated splenocytes (ELISA); assay type: cell-based, BALB/c; settings: ConA 1 μg/ml, several concentrations, 24 hours, FIG. 8
Description: In a sixth test, BALB/c spleen cells were stimulated with ConA (1 μg/ml) in the presence of several concentrations of physalin B. Cell-free supernatants were collected 24 hours after stimulation and tested for IL-2 production by ELISA.

[9] = system: BALB/c spleen cells or thyoglycollate-elicited peritoneal macrophages; assay: Viability of spleen cells and peritoneal macrophages (MTT); assay type: cell-based; settings: one day or three days of culturing, FIG. 9
Description: In the last test, BALB/c spleen cells or thyoglycollate-elicited peritoneal macrophages were cultured in the presence of several concentrations of physalin B. After one day (FIG. 9B) or three days (FIG. 9A) of culturing, plates were pulsed with MTT. Cell-viability was evaluated 2 hours later by optical density measuring at 570 nm.

[10] = system: human tumors like hepatoma, cervix uteri, lung and colon cells; settings: in vivo and in vitro tests; cited from earlier work
[11] = system: Trypanosoma brucei rhodesiense; settings: commonly used trypanocidal drug; cited from earlier work

Compound: C[C@]12C(=O)C=CCC1=CC[C@@H]1[C@@H]2CC[C@]2(O)C(=O)O[C@@]3(C)[C@H]4C[C@]5(C)[C@@H](CO[C@@]16O[C@@]32[C@H]5C6=O)C(=O)O4 [Physalin B]
- Mortality of Parasite (%) ([1]; dose 2.5 mg/ml, contact period 24 hours): 100%
- Mortality of Parasite (%) ([1]; dose 2.5 mg/ml, contact period 48 hours): 100%
- parasite mortality [2]: 100%
- in vitro reduction in the infection of peritoneal macrophages [3]: 100%
- TNFα production by macrophages [4]: inhibitory properties
- IL-6 production by macrophages [5]: inhibitory properties
- nitric oxide production, physalin B added at different times ([6]; 2 μg/ml added 0, 2, 4 and 6 hours after IFNγ+LPS stimulation, FIG. 5): time-dependence of the inhibition
- nitric oxide production by macrophages ([6]; LPS 500 ng/ml, IFNγ 5 ng/ml or IFNγ+LPS, various concentrations, FIG. 4): inhibitory properties
- nitric oxide production in the presence of indomethacyn ([6]; LPS+IFNγ, physalin B 2 μg/ml, indomethacyn 1 μg/ml, FIG. 6): addition of indomethacyn does not block the inhibition
- proliferation of ConA stimulated splenocytes (thymidine uptake) [7]: inhibits proliferation
- IL-2 production by ConA stimulated splenocytes [8]: inhibits IL-2 production
- concentrations at which non-toxic in vitro (cell viability, MTT) [9]: below 5 μg/ml

Compound: C[C@@]12C[C@H]3OC(=O)[C@@H]1CO[C@@]14O[C@]5([C@H]2C1=O)[C@@](O)(CC[C@H]1[C@H]4C[C@@H](O)[C@@]2(O)CC=CC(=O)[C@]12C)C(=O)O[C@@]35C [Physalin D]
- Mortality of Parasite (%) ([1]; dose 40 μg/ml, contact period 24 hours): 100%
- Mortality of Parasite (%) ([1]; dose 40 μg/ml, contact period 48 hours): 100%
- activity against human tumors [10]: active

Compound: C=C1C(=O)O[C@@H]2C[C@@]1(C)[C@@H]1C(=O)[C@]3(O)O[C@]14[C@@]2(C)OC(=O)[C@@]4(O)CC[C@H]1[C@H]3[C@H](O)C=C2CC=CC(=O)[C@@]21C [physalin A]
- activity against human tumors [10]: active

Compound: C[C@@]12C[C@H]3OC(=O)[C@@H]1CO[C@]14O[C@]5([C@H]2C1=O)[C@@](O)(CC[C@H]1[C@H]4C[C@H]2O[C@]24CC=CC(=O)[C@]14C)C(=O)O[C@@]35C [physalin F]
- activity against human tumors [10]: active

Compound: C[C@@H]1C(=O)O[C@@H]2C[C@@]1(C)C1C(=O)[C@]3(O)O[C@@]14[C@@](O)(CCC1C3[C@H](O)C=C3C=CCC(=O)[C@@]31C)C(=O)O[C@@]24C (stereo partly shown) [physalin L]
- activity against human tumors [10]: active

Compound: Cc1ccc(C(=O)Nc2ccc(S(=O)(=O)O)c3cc(S(=O)(=O)O)cc(S(=O)(=O)O)c23)cc1NC(=O)c1cccc(NC(=O)Nc2cccc(C(=O)Nc3cc(C(=O)Nc4ccc(S(=O)(=O)O)c5cc(S(=O)(=O)O)cc(S(=O)(=O)O)c45)ccc3C)c2)c1 [suramin]
- IC50 [11]: 0.0107 µg/mL (≈ 8.25 nM)
